We go through one compound from paper PMC6839502 (Journal of Alzheimer's Disease, 2019).

“Also recorded” adds a separate entry of the source.

Series [1] in a line: Safety and tolerability in study B8271007. Format: in vivo, human. The settings on record: 100 mg QD.
In a further series the test system is Cathepsin D (Cat D). The settings on record: FP assay; cited from earlier work.
The next series deals with dogs. The settings on record: long-term toxicology / chronic dosing for up to 9 months; cited from earlier work.
A further series relates to hERG. The settings on record: in vitro and in vivo preclinical safety and toxicology studies; cited from earlier work.

On to `C[C@H]1C[C@H]2CSC(N)=N[C@@]2(c2nc(NC(=O)c3ccc(OC(F)F)cn3)cs2)CO1` [PF-06751979], for which, in series [1] (period 2, Day 7), the “ALT elevation, one subject” value was found to be 2.12 ×ULN and the “AST elevation, one subject” value came to 1.23 ×ULN. Also, the “AST peak, one subject” value in series [1] (period 2, Day 12) turned out to be 1.75 ×ULN. Moreover, in series [1] (period 2, Day 13), the “ALT peak, one subject” value amounted to 3.33 ×ULN. In addition, the “Selectivity over Cathepsin D” value in the series on Cathepsin D (Cat D) was about 2500 fold. The “Hair color (pigmentation) change” value with dogs is given as “did not reveal any evidence of hair color change; also recorded: did not reveal pigmentation changes”. Also, in the series on hERG, the hERG inhibition result is “weak hERG inhibition”.
